The record followed here is patent US20050261298A1, “Methods of treating conditions associated with an Edg-7 receptor” (priority 2002, published 2005).

For orientation: melting point means the temperature of the solid-liquid transition. By IC50 is commonly meant the concentration that inhibits the measured activity by half.

Series [1] has as its system Adrenergic α1, Non-Selective. Nature of the series: Radioligand binding assay, 3H Prazosin. Set-up: species or system Wistar Rat. The note with it: significance criteria ≧50% of max stimulation or inhibition. Here is the method:
(§1) In order to test the selectivity of compounds, various enzyme assays as well as radioligand binding assays were performed using numerous non-Edg receptor targets as listed below.
(§2) A radioligand binding assay was performed using adrenergic α1 according to the method of Greengrass and Bremner 1979, Eur. J. Pharmacol. 55:323-326. A radioligand binding assay was performed using adrenergic α2 according to the method of Boyajian and Leslie, 1987, J. Pharmacol. Exp. Ther. 241:1092-1098. A radioligand binding assay was performed using adrenergic β according to the method of Feve et al., 1994, Proc. Natl. Acad. Sci. USA 91:5677-5681. A radioligand binding assay was performed using angiotensin AT2 according to the method of Whitebread et al., 1991, Biochem. Biophys. Res. Comm. 181:1365-1371. A radioligand binding assay was performed using calcium channel Type L, dihydropyridine according to the method of Ehlert et al., 1982, Life Sci. 30:2191-2202. A radioligand binding assay was performed using dopamine D2L according to the method of Bunzo et al., 1988, Nature 336:783-787. A radioligand binding assay was performed using endothelin ETA according to the method of Mihara et al., 1994, J. Pharmacol. Exp Ther. 268:1122-1127. A radioligand binding assay was performed using histamine H1 Central according to the method of Hill et al., 1978, J. Neurochem. 31:997-1004. […]

In a further series the test system is Adrenergic α2. Put plainly: Radioligand binding assay, 3H Rauwolscine. Also on record: species or system Wistar rat. The note with it: significance criteria ≧50% of max stimulation or inhibition. Here is the method: as §1, §2
The target of a further series is T1, human Edg 7 receptors (Homo sapiens, UniProt Q9UBY5).
T1 construct: expressed in transfected cells
T1 sequence (Q9UBY5 1-353): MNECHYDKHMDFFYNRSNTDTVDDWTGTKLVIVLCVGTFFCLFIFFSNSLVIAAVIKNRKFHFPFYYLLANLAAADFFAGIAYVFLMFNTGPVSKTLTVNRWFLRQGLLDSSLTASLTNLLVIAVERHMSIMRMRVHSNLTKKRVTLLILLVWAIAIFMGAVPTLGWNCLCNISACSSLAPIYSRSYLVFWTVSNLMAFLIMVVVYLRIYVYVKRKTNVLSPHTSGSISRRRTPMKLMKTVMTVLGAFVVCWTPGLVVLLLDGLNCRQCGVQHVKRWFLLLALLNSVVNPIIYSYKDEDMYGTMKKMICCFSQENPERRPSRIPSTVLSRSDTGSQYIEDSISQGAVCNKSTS
Nature of the series: Calcium mobilization assay (FLIPR), inhibition of LPA response. The class given is cell-based. Here is the method:
The compounds were tested in HTC cells expressing human Edg 7 receptors. […] The compounds are tested in this recombinant system first, and subsequently tested in cell lines expressing Edg-7 (in addition to other Edg receptors).
The radioligand binding assays were conducted as described in Section 6.15 (Example 15).
LPA receptors such as Edg-7, couple to calcium effector pathways, and result in increases in intracellular calcium following receptor activation (An, 1998, J. Cell. Biochem Supp. 30-31:147-157). This biological response lends itself to a very efficient, high-throughput screen using a Fluorescence Imaging Plate Reader (FLIPR; Molecular Devices, Sunnyvale, Calif.). The FLIPR system is a real-time, cell-based assay system with continuous fluorescence detection using a cooled CCD camera. The FLIPR system was used to developing an Edg-7 receptor screen. Rat hepatoma cells stably expressing Edg-7 receptor were plated on 384-well plates and loaded with a calcium dye loading kit (Molecular Devices, Sunnyvale, Calif.) for 1 hour at room temperature. Cells were then placed on the FLIPR^384 (Molecular Devices, Sunnyvale, Calif.) and excited by an argon laser at […]. The data for the entire 384-well plate was updated every second. An integrated robotic pipettor allowed for simultaneous compound addition into each individual well in the plate
In general terms: A change in cytosolic calcium serves as a functional read-out for many receptors and channels.

Series [2] has as its system Muscarinic Non-Selective, Central. Put plainly: Radioligand binding assay, 3H Quinuclidinyl benzilate. Set-up: species or system Wistar rat. The note with it: significance criteria ≧50% of max stimulation or inhibition. Here is the method: as §1, §2
The subject of the next series is Adrenergic β. Nature of the series: Radioligand binding assay, 3H Dihydroaplenolol. Set-up: species or system Wistar rat. The note with it: significance criteria ≧50% of max stimulation or inhibition. Here is the method: as §1, §2
A further series addresses T2, Dopamine D2L (Homo sapiens, UniProt P14416).
T2 construct: expressed in transfected cells; host or cells: CHO cells
Put plainly: Radioligand binding assay, 3H Spiperone. The conditions noted are these: significance criteria ≧50% of max stimulation or inhibition. Here is the method:
as §1, §2

For another series, the target named is Edg-4 (Homo sapiens, UniProt Q9HBW0). Nature of the series: Calcium mobilization assay (FLIPR), inhibition of LPA-stimulated calcium increase. Type of series: cell-based. The conditions noted are these: HTC cells expressing Edg-4.
In another series the target is T3, Edg-2 (Homo sapiens, UniProt Q92633).
T3 construct: expressed in transfected cells; host or cells: HTC rat hepatoma cells
Described as above. Type of series: cell-based. The note with it: HTC cells expressing Edg-2.

A further series addresses T4, Histamine H1, Central (Cavia porcellus, UniProt P31389).
T4 construct: Source: Guinea pig cerebellum; from tissue; host or cells: guinea pig cerebellum
Put plainly: Radioligand binding assay, 3H Pyrilamine. Set-up: species or system Guinea pig. The conditions noted are these: significance criteria ≧50% of max stimulation or inhibition. Here is the method:
as §1, §2

The target in another series is T5, Edg-1 (Homo sapiens, UniProt P21453).
T5 construct: expressed in transfected cells; host or cells: HTC rat hepatoma cells
Nature of the series: Calcium mobilization assay (FLIPR), inhibition of S1P-stimulated calcium increase. The note with it: HTC cells expressing Edg-1. Type of series: cell-based.

Another series addresses T6, Edg-5 (Homo sapiens, UniProt O95136).
T6 construct: expressed in transfected cells; host or cells: HTC rat hepatoma cells
The series is described as above. The class given is cell-based. The note with it: HTC cells expressing Edg-5.

[3] abbreviates: concentrations as high as 20 µM.

T5 sequence (P21453 whole entry): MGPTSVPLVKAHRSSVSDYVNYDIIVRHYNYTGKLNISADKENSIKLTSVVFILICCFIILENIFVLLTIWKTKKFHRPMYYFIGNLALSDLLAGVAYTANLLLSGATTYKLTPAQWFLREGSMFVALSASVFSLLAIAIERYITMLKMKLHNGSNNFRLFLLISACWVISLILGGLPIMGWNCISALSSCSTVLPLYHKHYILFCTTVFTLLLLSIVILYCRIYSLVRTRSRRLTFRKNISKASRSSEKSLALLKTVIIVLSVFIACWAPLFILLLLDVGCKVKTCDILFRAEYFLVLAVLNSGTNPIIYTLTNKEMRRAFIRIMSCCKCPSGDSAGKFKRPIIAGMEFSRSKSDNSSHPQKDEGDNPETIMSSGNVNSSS
T6 sequence (O95136 whole entry): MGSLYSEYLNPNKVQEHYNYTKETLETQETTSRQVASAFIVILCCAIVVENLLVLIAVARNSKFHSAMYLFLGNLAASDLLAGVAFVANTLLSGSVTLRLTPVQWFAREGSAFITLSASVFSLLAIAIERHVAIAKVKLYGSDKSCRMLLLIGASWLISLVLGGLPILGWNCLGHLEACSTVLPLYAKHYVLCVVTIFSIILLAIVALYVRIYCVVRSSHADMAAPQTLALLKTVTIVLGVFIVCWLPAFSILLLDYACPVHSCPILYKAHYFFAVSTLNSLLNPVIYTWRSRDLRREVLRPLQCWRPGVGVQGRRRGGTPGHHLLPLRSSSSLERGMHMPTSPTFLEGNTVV
Edg-4, sequence (Q9HBW0 1-344 limits assumed): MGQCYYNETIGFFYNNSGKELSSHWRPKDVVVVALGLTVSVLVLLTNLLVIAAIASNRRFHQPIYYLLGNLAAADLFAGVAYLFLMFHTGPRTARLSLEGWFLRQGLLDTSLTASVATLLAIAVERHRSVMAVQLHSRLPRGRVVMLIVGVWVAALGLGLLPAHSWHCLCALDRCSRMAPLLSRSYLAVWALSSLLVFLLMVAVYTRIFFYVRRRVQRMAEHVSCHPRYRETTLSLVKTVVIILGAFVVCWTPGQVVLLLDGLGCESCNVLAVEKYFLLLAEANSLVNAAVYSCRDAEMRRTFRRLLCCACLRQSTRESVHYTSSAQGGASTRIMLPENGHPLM
T3 sequence (Q92633 whole entry): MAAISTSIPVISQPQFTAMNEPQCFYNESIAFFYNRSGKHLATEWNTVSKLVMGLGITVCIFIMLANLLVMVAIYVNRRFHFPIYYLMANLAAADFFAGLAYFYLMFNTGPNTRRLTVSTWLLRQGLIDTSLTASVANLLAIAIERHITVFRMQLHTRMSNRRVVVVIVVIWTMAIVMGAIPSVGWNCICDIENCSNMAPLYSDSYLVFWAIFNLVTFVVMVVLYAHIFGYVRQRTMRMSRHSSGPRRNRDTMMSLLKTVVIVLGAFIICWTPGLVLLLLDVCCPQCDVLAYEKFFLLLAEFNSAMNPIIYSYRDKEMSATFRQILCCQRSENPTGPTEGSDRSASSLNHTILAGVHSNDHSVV
T2 sequence (P14416 whole entry): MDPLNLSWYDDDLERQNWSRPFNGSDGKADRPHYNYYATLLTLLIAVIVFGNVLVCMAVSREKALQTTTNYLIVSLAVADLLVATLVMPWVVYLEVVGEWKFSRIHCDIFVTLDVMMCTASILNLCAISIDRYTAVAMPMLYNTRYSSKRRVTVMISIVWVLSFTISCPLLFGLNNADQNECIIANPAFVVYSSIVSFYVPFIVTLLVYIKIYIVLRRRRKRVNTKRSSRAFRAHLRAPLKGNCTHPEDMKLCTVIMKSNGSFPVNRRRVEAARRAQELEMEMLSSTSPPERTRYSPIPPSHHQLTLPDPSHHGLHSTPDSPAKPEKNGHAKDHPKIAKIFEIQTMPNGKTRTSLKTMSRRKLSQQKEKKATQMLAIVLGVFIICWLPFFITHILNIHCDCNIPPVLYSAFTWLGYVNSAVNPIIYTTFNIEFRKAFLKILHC
T4 sequence (P31389 whole entry): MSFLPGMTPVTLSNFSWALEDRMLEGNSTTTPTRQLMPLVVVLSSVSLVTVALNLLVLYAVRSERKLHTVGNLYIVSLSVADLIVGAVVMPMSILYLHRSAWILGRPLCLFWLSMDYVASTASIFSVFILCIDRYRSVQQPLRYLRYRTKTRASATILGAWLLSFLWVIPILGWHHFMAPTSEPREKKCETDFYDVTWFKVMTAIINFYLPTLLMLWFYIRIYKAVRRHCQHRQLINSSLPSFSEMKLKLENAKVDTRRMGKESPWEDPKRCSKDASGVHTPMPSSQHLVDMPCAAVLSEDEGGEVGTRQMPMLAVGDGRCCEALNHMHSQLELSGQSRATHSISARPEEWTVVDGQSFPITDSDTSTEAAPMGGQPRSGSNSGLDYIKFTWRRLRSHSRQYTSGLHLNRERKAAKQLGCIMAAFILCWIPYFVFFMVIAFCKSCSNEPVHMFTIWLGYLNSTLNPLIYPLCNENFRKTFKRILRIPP

The molecule `CCOC(=O)c1c(NC(=O)NS(=O)(=O)c2ccccc2Cl)sc2c1CCCC2` [Compound 101] yielded a melting point of 222 to 225 °C. In series [1], the “activity in radioligand binding assay, Adrenergic Alpha 1, non-selective” value is listed as “no significant activity”. The “activity in radioligand binding assay, Adrenergic Alpha 2, non-selective” value in the series with Adrenergic α2 was “no significant activity”. Moreover, the “selective inhibition of the Edg-7 receptor (FIG. 1, FIG. 2)” value at human Edg 7 receptors (HTC cells expressing Edg-7) is “specifically inhibit”. Besides, at human Edg 7 receptors (HTC cells expressing human Edg 7), the IC50 worked out at 1.59 µM. For the same molecule, at human Edg 7 receptors (inhibitory selectivity for Edg-7 relative to other Edg receptors), the “Fold Selectivity” value is on record as above 12.6 Fold. In addition, the “activity in radioligand binding assay, Muscarinic, non-selective, central” value in series [2] is “no significant activity”. In addition, the “activity in radioligand binding assay, Adrenergic Beta, non-selective” value in the series with Adrenergic β is “no significant activity”. Moreover, the “activity in radioligand binding assay, Dopamine D2L” value at Dopamine D2L is “no significant activity”. For the same molecule, the IC50 at Edg-4 is above 20 µM. At Edg-4 (setting [3]), the “inhibition of LPA-stimulated calcium increases, Edg-4” value is “did not inhibit”. Moreover, on Edg-2, the IC50 was above 20 µM. Also, at Edg-2 (setting [3]), the “inhibition of LPA-stimulated calcium increases, Edg-2” value is listed as “did not inhibit”. Also, the “activity in radioligand binding assay, H1 central” value on Histamine H1, Central was “no significant activity”. Also, the IC50 on Edg-1 is above 20 µM. The “inhibition of S1P-stimulated calcium increases, Edg-1” value on Edg-1 (setting [3]) was “did not inhibit”. The 50% inhibitory concentration (IC50) on Edg-5 was above 20 µM. The “inhibition of S1P-stimulated calcium increases, Edg-5” value at Edg-5 (setting [3]) is reported as “did not inhibit”.
